Values after ≈ are worked out from the molar mass of the structure shown.
molecular target: T1, human TRPV4 (Homo sapiens (Human), UniProt Q9HBA0); assay: Test Example 3: measurement of TRPV4 inhibitory activity (Fluo-3, FDSS 3000, 4α-PDD); format: cell-based; conditions: hTRPV4/CHO cells, calculated from IC50 and 4α-PDD EC50
Protocol: (§1) For each compound, TRPV4 inhibitory activity was measured using cells.
(§2) (1) The TRPV4 inhibitory activity was measured using CHO-K1 cells stably expressing human TRPV4 (hTRPV4/CHO cells).
(2) Frozen cells were thawed and subcultured with the medium (MEM-α, 10% FBS, […], 50 unit/mL penicillin, 50 μg/mL streptomycin, 1 mg/mL G418).
(3) The 96-well plates which hTRPV4/CHO cells were seeded at densities of 2×10^4 cells/well in the culture medium and cultured in a CO2 incubator in the presence of 5% CO2 at 37° C. for 24 h was used as assay plates.
(4) The assay plate was washed with assay buffer (Hanks, […], […], pH7.4).
(5) Fluo-3, fluorescent dye for Ca influx assay was added to each well, then the assay plate was incubated in a CO2 incubator in the presence of 5% CO2 at 37° C. for one hour (final conc.; 5 μmmol/L Fluo-3).
(6) The assay plate was washed with the assay buffer, and the buffer was remained at 30 μL/well. Then the assay plate was incubated for 10 min at 37° C.
(7) Diluted compound solution was dispensed to each well in the compound plate, and mixed with built-in Pipette and Mixer of the fluorescence analysis system FDSS 3000 (Hamamatsu Photonics).
(8) 50 μL of 4α-PDD solution (concluding 0.1% Pluronic F-127) was applied to each well of assay plate and mixed.
(9) The fluorescent intensity was measured by FDSS 3000 for 8 min from the point of time addition the compound solution, at Ex 480 nm, Em 540 nm wavelength.
TRPV4 inhibitory activity (Ki value) of a compound was evaluated according to the following procedure.
(10) In the presence of the compound, the difference between maximal and minimal of fluorescent intensity value for 8 min from just before addition of 4α-PDD solution was calculated, and it was referred as Max-Min value. Max-Min value of the Ruthenium Red at 10 μM was defined as 100% inhibitory activity, Max-Min value in the absence of the compound was defined as 0% inhibitory activity. The TRPV4 inhibitory activity of the compound was calculated by the following formula. (1−(Max-Min value of the compound−100% inhibitory activity)/(0% inhibitory activity−100% inhibitory activity))×100 (11) By the following formula, inhibitory activity was calculated at 10 points with three fold serial dilution, in the final concentration of the compound from 10 μmmol/L to 0.5 nmol/L. The IC50 value was calculated by dose-response curve. 100−[(fluorescent intensity in the presence of the compound−fluorescent intensity of back ground)/(total fluorescent intensity−fluorescent intensity of back ground)]×100 (12) In the presence of the compound, activity of 4α-PDD was measured at 9 points with three fold serial dilution from 20 μmol/L. Activity of 4α-PDD was calculated by the following formula. (Max-Min value of the each 4α-PDD concentration−0% activity)/(100% activity−0% activity))×100 (13) Effective activity was calculated in 4α-PDD the above. The EC50 value was calculated by dose-response curve. (14) The Ki value of a compound was calculated by the following formula. Ki (nmol/L)=IC50 value (nmol/L)/([A]/EC50 value (nmol/L)) [A]; Concentration of agonist (nmol/L)

T1 sequence (Q9HBA0 whole entry): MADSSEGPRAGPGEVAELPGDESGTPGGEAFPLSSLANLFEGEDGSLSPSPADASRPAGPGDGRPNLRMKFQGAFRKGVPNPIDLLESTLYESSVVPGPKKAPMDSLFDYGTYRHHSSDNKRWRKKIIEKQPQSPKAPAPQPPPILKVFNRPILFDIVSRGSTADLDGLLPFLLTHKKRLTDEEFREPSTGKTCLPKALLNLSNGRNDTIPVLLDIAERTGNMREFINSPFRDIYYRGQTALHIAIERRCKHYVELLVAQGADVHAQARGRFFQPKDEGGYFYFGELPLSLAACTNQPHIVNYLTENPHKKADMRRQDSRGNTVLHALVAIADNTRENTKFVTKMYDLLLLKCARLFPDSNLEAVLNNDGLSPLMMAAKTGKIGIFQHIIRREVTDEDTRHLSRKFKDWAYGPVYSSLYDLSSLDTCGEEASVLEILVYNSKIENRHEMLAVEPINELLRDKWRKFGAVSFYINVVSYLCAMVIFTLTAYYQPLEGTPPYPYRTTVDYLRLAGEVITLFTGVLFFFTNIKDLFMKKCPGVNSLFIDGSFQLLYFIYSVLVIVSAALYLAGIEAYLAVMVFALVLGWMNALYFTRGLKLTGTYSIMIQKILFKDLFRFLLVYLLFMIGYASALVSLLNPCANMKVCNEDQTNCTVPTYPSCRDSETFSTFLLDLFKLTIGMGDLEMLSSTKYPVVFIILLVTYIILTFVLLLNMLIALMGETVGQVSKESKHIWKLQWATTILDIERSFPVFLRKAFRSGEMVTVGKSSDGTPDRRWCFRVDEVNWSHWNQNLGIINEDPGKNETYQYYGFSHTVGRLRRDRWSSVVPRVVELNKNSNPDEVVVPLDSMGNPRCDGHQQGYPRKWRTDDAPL

Compound	Ki [nM]
Cc1c(C(=O)Nc2cccc(C(F)(F)F)c2)cc(-c2ccccc2)n1CCCN(C)C(=O)C1CCCC1 [Compound I-049]	418
Cc1c(C(=O)Nc2cccc(C(F)(F)F)c2)cc(-c2ccccc2)n1CCCN(C)C(=O)c1ccno1 [Compound I-063]	251
CC(=O)N(C)CCCn1c(-c2ccccc2)cc(C(=O)Nc2cccc(C(F)(F)F)c2)c1C [Compound I-070]	1680
Cc1c(NC(=O)Nc2cccc(C(F)(F)F)c2)cc(-c2ccccc2)n1CCCN1CCOCC1 [Compound I-081]	1610
Cc1c(C(=O)Nc2cccc(C(F)(F)F)c2)cc(-c2ccccc2)n1CCN1CCOCC1 [Compound I-083]	443

molecular target: T1, human TRPV4; assay: Test Example 1: measurement of TRPV4 inhibitory activity (Fluo 4-AM, FLIPR TETRA, 4α-PDD 1 μmol/L); format: cell-based; conditions: hTRPV4/CHO cells, 4α-PDD 1 μmol/L
Protocol: as §1, §2
(2) In the day before the experimental day, frozen cell were thawed and washed with the culture medium (MEM-α, 10% FBS, 2 mmol/L GlutaMax, 50 unit Penicillin, 50 μg/mL Streptomycin). Then cells were suspended in the culture medium.
(3) The 384-well plates which hTRPV4/CHO cells were seeded at densities of 4000 cells/well in the culture medium and cultured in a CO2 incubator in the presence of 5% CO2 at 37° C. for overnight was used as assay plates.
(4) The assay plate was washed with assay buffer (Hanks, 20 mmol/L HEPES, 2.5 mmol/L probenecid, pH7.4), and the buffer were remained at 20 μL/well.
(5) 10 μl of dye loading buffer (9 μmol/L Fluo 4-AM, 0.09% Pluronic F-127/assay buffer) was added to each well, then the assay plate was incubated in a CO2 incubator in the presence of 5% CO2 at 37° C. for one hour. (final 3 μmol/L Fluo4-AM).
(6) The assay plate was washed with the assay buffer, and the buffers were remained at 20 μL/well. Then the assay plate was incubated for 10 min at room temperature.
(7) Diluted compound solution was dispensed to each well in the compound plate, and mixed with built-in Pipette and Mixer of the Fluorescence analysis system FLIPR TETRA (Molecular devices).
(8) After incubation for 5 min, 20 μL of 4α-PDD solution were applied to each well of assay plate and mixed with the FLIPR TETRA. (final 1 μmol/L 4α-PDD)
(9) The fluorescent intensity was measured with FLIPR TETRA system for 10 min from the point of time addition the compound solution, at Ex 470-495 nm, Em 515-575 nm wavelength.
TRPV4 inhibitory activity (IC50 value and Ki value) of a compound was evaluated according to the following procedure.
(10) In the presence of the compound, the difference between maximal and minimal of fluorescent intensity value for 5 min from just before addition of 4α-PDD solution was calculated, and it was referred as Max-Min value. Max-Min value of the Ruthenium Red at 20 μM was defined as 100% inhibitory activity, Max-Min value in the absence of the compound was defined as 0% inhibitory activity. The TRPV4 inhibitory activity of the compound was calculated by the following formula. (1−(Max-Min value of the compound−100% inhibitory activity)/(0% inhibitory activity−100% inhibitory activity))×100 (11) Inhibitory activity was calculated at 10 points with three fold serial dilution, in the final concentration of the compound from 10 μmmol/L to 0.5 nmol/L, the IC50 value was calculated by logistic approximation method. (12) In the absence of the compound, the fluorescent intensity was measured as the same method with 10, 1, 0.5, 0.2, and 0 μmol/L as final concentration of 4α-PDD. The difference of minimal and maximal fluorescent intensity value for 5 min from just before addition of 4α-PDD solution was calculated, and it was referred as Max-Min value. Max-Min value of the 4α-PDD at 10 μmol/L was defined as 100% activity, Max-Min value in the absence of 4α-PDD was defined as 0% activity. The TRPV4 activity of each concentration of 4α-PDD was calculated by the following formula. (Max-Min value of the each 4α-PDD concentration−0% activity)/(100% activity−0% activity))×100 (13) Effective activity was calculated in 5 concentrations of 4α-PDD the above. The EC50 value was calculated by logistic approximation method. The Ki value of a compound was calculated by the following formula. Ki (nmol/L)=IC50 value (nmol/L)/(1+[…] (test 4α-PDD concentration (nmol/L)/EC50 value (nmol/L))

Compound	IC50 [nM]
Cc1c(C(=O)Nc2cccc(C(F)(F)F)c2)cc(-c2ccccc2)n1CCCN(C)C(=O)C1CCCC1 [Compound I-049]	240
Cc1c(C(=O)Nc2cccc(C(F)(F)F)c2)cc(-c2ccccc2)n1CCCN(C)C(=O)c1ccno1 [Compound I-063]	510
CC(=O)N(C)CCCn1c(-c2ccccc2)cc(C(=O)Nc2cccc(C(F)(F)F)c2)c1C [Compound I-070]	590
Cc1c(C(=O)Nc2cccc(C(F)(F)F)c2)cc(-c2ccccn2)n1CCCN1CCOCC1 [Compound I-073]	340
Cc1c(C(=O)Nc2cccc(C(F)(F)F)c2)cc(-c2ccncc2)n1CCCN1CCOCC1 [Compound I-074]	1700
CC(=O)N1CCC(c2cc(C(=O)Nc3cccc(C(F)(F)F)c3)c(C)n2CCCN2CCOCC2)CC1 [Compound I-077]	4700
Cc1c(C(=O)Nc2cccc(C(F)(F)F)c2)cc(C2CCN(S(C)(=O)=O)CC2)n1CCCN1CCOCC1 [Compound I-078]	4900
Cc1c(C(=O)Nc2cccc(C(F)(F)F)c2)cc(C#N)n1CCCN1CCOCC1 [Compound I-079]	7800
Cc1c(NC(=O)Nc2cccc(C(F)(F)F)c2)cc(-c2ccccc2)n1CCCN1CCOCC1 [Compound I-081]	3900
Cc1c(C(=O)Nc2cccc(C(F)(F)F)c2)cc(-c2ccccc2)n1CCN1CCOCC1 [Compound I-083]	400
O=C(Nc1cccc(C(F)(F)F)c1)c1cc(-c2ccccc2)nn1CCCN1CCOCC1 [Compound I-085]	1300
O=C(Nc1cccc(C(F)(F)F)c1)c1cc(-c2ccccc2)n(CCCN2CCOCC2)n1 [Compound I-086]	3400
O=C(Nc1cccc(C(F)(F)F)c1)c1cnc(-c2ccccc2)c(CCCN2CCOCC2)c1 [Compound I-088]	5800

same assay, conditions: hTRPV4/CHO cells, calculated from IC50 and 4α-PDD EC50

Compound	Ki [nM]
Cc1c(C(=O)Nc2cccc(C(F)(F)F)c2)cc(-c2ccccn2)n1CCCN1CCOCC1 [Compound I-073]	160
Cc1c(C(=O)Nc2cccc(C(F)(F)F)c2)cc(-c2ccncc2)n1CCCN1CCOCC1 [Compound I-074]	780
CC(=O)N1CCC(c2cc(C(=O)Nc3cccc(C(F)(F)F)c3)c(C)n2CCCN2CCOCC2)CC1 [Compound I-077]	2000
Cc1c(C(=O)Nc2cccc(C(F)(F)F)c2)cc(C2CCN(S(C)(=O)=O)CC2)n1CCCN1CCOCC1 [Compound I-078]	2100
Cc1c(C(=O)Nc2cccc(C(F)(F)F)c2)cc(C#N)n1CCCN1CCOCC1 [Compound I-079]	3200
O=C(Nc1cccc(C(F)(F)F)c1)c1cc(-c2ccccc2)nn1CCCN1CCOCC1 [Compound I-085]	590
O=C(Nc1cccc(C(F)(F)F)c1)c1cc(-c2ccccc2)n(CCCN2CCOCC2)n1 [Compound I-086]	1600
O=C(Nc1cccc(C(F)(F)F)c1)c1cnc(-c2ccccc2)c(CCCN2CCOCC2)c1 [Compound I-088]	2800

tested on: not listed separately; assay: Solubility test; format: physicochemical; conditions: artificial intestinal juice (phosphate buffer) with 1% DMSO, fassgf or other biorelevant, kinetic from dmso stock, artificial intestinal juice pH 6.8, 16 hours at 25° C.
Protocol: The solubility of each compound is determined under 1% DMSO addition conditions. A 10 mmol/L solution of the compound is prepared with DMSO, and 6 μL of the compound solution is added to 594 μL of an artificial intestinal juice (water and 118 mL of 0.2 mol/L NaOH reagent are added to 250 mL of 0.2 mol/L potassium dihydrogen phosphate reagent to reach 1000 mL) with a pH of 6.8. The mixture is left standing for 16 hours at 25° C., and the mixture is vacuum-filtered. The filtrate is two-fold diluted with methanol/water=1/1, and the compound concentration in the filtrate is measured with HPLC or LC/MS/MS by the absolute calibration method.

Compound	solubility at 16 h [µM]
Cc1c(C(=O)Nc2cccc(C(F)(F)F)c2)cc(-c2ccccn2)n1CCCN1CCOCC1 [Compound I-073]	28.9 (≈ 13.7 µg/mL)
Cc1c(C(=O)Nc2cccc(C(F)(F)F)c2)cc(-c2ccncc2)n1CCCN1CCOCC1 [Compound I-074]	> 50
CC(=O)N1CCC(c2cc(C(=O)Nc3cccc(C(F)(F)F)c3)c(C)n2CCCN2CCOCC2)CC1 [Compound I-077]	> 50
Cc1c(C(=O)Nc2cccc(C(F)(F)F)c2)cc(C2CCN(S(C)(=O)=O)CC2)n1CCCN1CCOCC1 [Compound I-078]	20.1 (≈ 11.2 µg/mL)
Cc1c(C(=O)Nc2cccc(C(F)(F)F)c2)cc(C#N)n1CCCN1CCOCC1 [Compound I-079]	40.2 (≈ 16.9 µg/mL)
O=C(Nc1cccc(C(F)(F)F)c1)c1cc(-c2ccccc2)nn1CCCN1CCOCC1 [Compound I-085]	14.5 (≈ 6.65 µg/mL)
O=C(Nc1cccc(C(F)(F)F)c1)c1cc(-c2ccccc2)n(CCCN2CCOCC2)n1 [Compound I-086]	8.3 (≈ 3.81 µg/mL)
O=C(Nc1cccc(C(F)(F)F)c1)c1cnc(-c2ccccc2)c(CCCN2CCOCC2)c1 [Compound I-088]	35.1 (≈ 16.5 µg/mL)

same assay, conditions: artificial intestinal juice (phosphate buffer), fassgf or other biorelevant, kinetic from dmso stock; 1% DMSO, artificial intestinal juice pH 6.8, 16 hours at 25° C.

Compound	solubility at 16 h [µM]
Cc1c(C(=O)Nc2cccc(C(F)(F)F)c2)nc(-c2ccccc2)n1CCCN1CCOCC1 [Compound I-087]	5.2 (≈ 2.46 µg/mL)

Source: US9340500B2, “Aromatic heterocyclic derivative having TRPV4-inhibiting activity” (SHIONOGI & CO., LTD., priority 2011, dated 2016)
